Legend:
c-kit mutant D816V = c-kit mutant D816V (Homo sapiens (Human), UniProt P10721, D816V/DEL694-753); experiment: c-Kit mutant D816V biochemical assay (AlphaScreen kinase activity)
Summary of the method: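 Recombinant His-tagged c-Kit D816V kinase domain (residues 551-934, insert 694-753 deleted, E. coli-expressed) phosphorylating 30 nM biotin-(E4Y)10 with 10 μM ATP, HEPES pH 7.2, Mg/Mn, 5% DMSO; 30 min, room temperature. Phosphorylation detected by AlphaScreen (streptavidin donor/PY30 acceptor beads); IC50 from 8-point 1:3 series.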

[1] = tested on: BaF3-FL KIT D816V or BaF3-FL KIT V560G/D816V cell line; experiment: Cell-based assays of c-Kit mutant kinase activity (cell proliferation, ATPlite); conditions: at least one of the c-kit cell assays of Example 7
Summary of the method: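 BaF3 cells dependent on transfected full-length human KIT D816V or V560G/D816V (pCI-Neo, CMV promoter) were seeded at 1×10^4 cells/well and exposed to 8-point 1:3 dilutions from 10 μM top (0.2% DMSO) for three days at 37° C. ATPlite luminescence gave cell number; IC50 from concentration-response.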

Chain of c-kit mutant D816V (P10721 other isoform, or with tags, fused parts or gaps D816V/del 694-753): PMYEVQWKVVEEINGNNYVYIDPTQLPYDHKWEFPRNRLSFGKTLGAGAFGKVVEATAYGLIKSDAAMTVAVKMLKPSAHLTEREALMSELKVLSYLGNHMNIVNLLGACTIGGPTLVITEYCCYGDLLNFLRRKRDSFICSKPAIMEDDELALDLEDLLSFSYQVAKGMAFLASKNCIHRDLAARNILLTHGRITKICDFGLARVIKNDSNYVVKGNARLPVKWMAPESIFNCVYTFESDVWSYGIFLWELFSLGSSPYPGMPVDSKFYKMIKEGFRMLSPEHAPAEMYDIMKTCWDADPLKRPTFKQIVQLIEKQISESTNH

## COc1cc(-c2cc3c(N4CCC(c5nc(C)c(-c6ccc(OC(C)C)cc6)[nH]5)CC4)ncnc3[nH]2)ccn1 [P-3091, 4-[4-[5-(4-isopropoxyphenyl)-4-methyl-1H-imidazol-2-yl]-1-piperidyl]-6-(2-methoxy-4-pyridyl)-7H-pyrrolo[2,3-d]pyrimidine]
c-kit mutant D816V
  IC50: 0.0001 to 1 µM
[1]
  IC50: < 10000 nM

## Cc1ccc(-c2[nH]c(C3CCN(c4ncnc5[nH]c(-c6ccc(C#N)cc6)cc45)CC3)nc2C)s1 [P-3090, 4-[4-[4-[4-methyl-5-(5-methyl-2-thienyl)-1H-imidazol-2-yl]-1-piperidyl]-7H-pyrrolo[2,3-d]pyrimidin-6-yl]benzonitrile]
c-kit mutant D816V
  IC50: 0.0001 to 1 µM
[1]
  IC50: < 10000 nM

## Cc1nc(C2CCN(c3ncnc4[nH]c(-c5ccc(C#N)cc5)cc34)CC2)[nH]c1-c1ccc(OC(C)C)cc1 [P-3093, 4-[4-[4-[5-(4-isopropoxyphenyl)-4-methyl-1H-imidazol-2-yl]-1-piperidyl]-7H-pyrrolo[2,3-d]pyrimidin-6-yl]benzonitrile]
c-kit mutant D816V
  IC50: 0.0001 to 1 µM
[1]
  IC50: < 10000 nM

## Cc1ccc(-c2[nH]c(C3CCN(c4ncnc5[nH]c(-c6ccc(C#N)cc6)cc45)CC3)nc2C)cc1 [P-3089, 4-[4-[4-[4-methyl-5-(p-tolyl)-1H-imidazol-2-yl]-1-piperidyl]-7H-pyrrolo[2,3-d]pyrimidin-6-yl]benzonitrile]
c-kit mutant D816V
  IC50: 0.0001 to 1 µM
[1]
  IC50: < 10000 nM

## CCOc1cc(-c2[nH]c(C3CCN(c4ncnc5[nH]c(-c6ccc(F)cc6)cc45)CC3)nc2C)ccc1C [P-3094, 4-[4-[5-(3-ethoxy-4-methyl-phenyl)-4-methyl-1H-imidazol-2-yl]-1-piperidyl]-6-(4-fluorophenyl)-7H-pyrrolo[2,3-d]pyrimidine]
c-kit mutant D816V
  IC50: 0.0001 to 1 µM
[1]
  IC50: < 10000 nM

## Cc1nc(C2CCN(c3ncnc4[nH]c(-c5ccc(F)cc5)cc34)CC2)[nH]c1-c1ccc(OC(C)C)cc1 [P-3092, 6-(4-fluorophenyl)-4-[4-[5-(4-isopropoxyphenyl)-4-methyl-1H-imidazol-2-yl]-1-piperidyl]-7H-pyrrolo[2,3-d]pyrimidine]
c-kit mutant D816V
  IC50: 0.0001 to 1 µM
[1]
  IC50: < 10000 nM

## Cc1nc(C2CCN(c3ncnc4[nH]c(-c5ccc(F)cc5)cc34)CC2)[nH]c1-c1ccc(F)cc1 [P-3006, 6-(4-fluorophenyl)-4-[4-[5-(4-fluorophenyl)-4-methyl-1H-imidazol-2-yl]-1-piperidyl]-7H-pyrrolo[2,3-d]pyrimidine]
c-kit mutant D816V
  IC50: 0.0001 to 1 µM
[1]
  IC50: < 10000 nM

Source: US9771369B2, “Compounds and methods for kinase modulation, and indications therefor” (Plexxikon Inc., priority 2014, dated 2017)
